Results published in patent publication US20120264735A1 (priority 2009, published 2012).

Biological target: T1, c-Met kinase (recombinant c-Met) (Homo sapiens, UniProt P08581)
T1 construct: 0.27 nM recombinant c-Met
Assay: In vitro kinase assay I (homogeneous time-resolved fluorescence tyrosine kinase assay)
Format: biochemical
Protocol: The kinase activities of c-Met are measured using a modified version of the homogeneous-time-resolved tyrosine kinase assay described by Park et al. (1999, Anal. Biochem. 269:94-104).
The procedure for determining the potency of a compound to inhibit c-Met kinase comprises the following steps: • 1. Prepare 3-fold serial diluted compound solutions in 100% dimethyl sulfoxide (DMSO) at 20× of the desired final concentrations in a 384-well plate. • 2. Prepare a master reaction mix containing 6.67 mM MgCl2, 133.3 mM NaCl, 66.7 mM Tris-HCl (pH 7.4), 0.13 mg/ml BSA, 2.67 mM dithiothreitol, 0.27 nM recombinant c-Met and 666.7 nM biotinylated synthetic peptide substrate (biotin-ahx-EQEDEPEGDYFEWLE-CONH2) (SEQ.ID.NO.:1). • 3. In a black assay plate, add 1.5 μl of compound solution (or DMSO) and 22.5 μl of master reaction mix per well. Initiate the kinase reaction by adding 6 μl of 0.25 mM MgATP per well. Allow the reactions to proceed for 60 min at room temperature. The final conditions for the reaction are 0.2 nM c-Met, 0.5 μM substrate, 50 μM MgATP, 5 mM MgCl2, 100 mM NaCl, 2 mM DTT, 0.1 mg/ml BSA, 50 mM Tris (pH 7.4) and 5% DMSO. • 4. Stop the kinase reaction with 30 μl of Stop/Detection buffer containing 10 mM EDTA, 25 mM HEPES, 0.1% TRITON X-100, 0.750 nM Eu-chelate labeled anti-phosphotyrosine antibody PY20 (cat. #AD0067, PerkinElmer) and 50 μg/ml Streptavidin-allophycocyanin conjugate (cat. #PJ25S, Prozyme). • 5. Read HTRF signals on a Victor reader (PerkinElmer) in HTRF mode after 60-min incubation at room temperature in the dark. • 6. IC50 is determined by fitting the observed relationship between compound concentration and HTRF signal with a 4-parameter logistic equation. II. GTL-16 pY1349 Cell-Based Assay

T1 sequence (P08581 25-1390): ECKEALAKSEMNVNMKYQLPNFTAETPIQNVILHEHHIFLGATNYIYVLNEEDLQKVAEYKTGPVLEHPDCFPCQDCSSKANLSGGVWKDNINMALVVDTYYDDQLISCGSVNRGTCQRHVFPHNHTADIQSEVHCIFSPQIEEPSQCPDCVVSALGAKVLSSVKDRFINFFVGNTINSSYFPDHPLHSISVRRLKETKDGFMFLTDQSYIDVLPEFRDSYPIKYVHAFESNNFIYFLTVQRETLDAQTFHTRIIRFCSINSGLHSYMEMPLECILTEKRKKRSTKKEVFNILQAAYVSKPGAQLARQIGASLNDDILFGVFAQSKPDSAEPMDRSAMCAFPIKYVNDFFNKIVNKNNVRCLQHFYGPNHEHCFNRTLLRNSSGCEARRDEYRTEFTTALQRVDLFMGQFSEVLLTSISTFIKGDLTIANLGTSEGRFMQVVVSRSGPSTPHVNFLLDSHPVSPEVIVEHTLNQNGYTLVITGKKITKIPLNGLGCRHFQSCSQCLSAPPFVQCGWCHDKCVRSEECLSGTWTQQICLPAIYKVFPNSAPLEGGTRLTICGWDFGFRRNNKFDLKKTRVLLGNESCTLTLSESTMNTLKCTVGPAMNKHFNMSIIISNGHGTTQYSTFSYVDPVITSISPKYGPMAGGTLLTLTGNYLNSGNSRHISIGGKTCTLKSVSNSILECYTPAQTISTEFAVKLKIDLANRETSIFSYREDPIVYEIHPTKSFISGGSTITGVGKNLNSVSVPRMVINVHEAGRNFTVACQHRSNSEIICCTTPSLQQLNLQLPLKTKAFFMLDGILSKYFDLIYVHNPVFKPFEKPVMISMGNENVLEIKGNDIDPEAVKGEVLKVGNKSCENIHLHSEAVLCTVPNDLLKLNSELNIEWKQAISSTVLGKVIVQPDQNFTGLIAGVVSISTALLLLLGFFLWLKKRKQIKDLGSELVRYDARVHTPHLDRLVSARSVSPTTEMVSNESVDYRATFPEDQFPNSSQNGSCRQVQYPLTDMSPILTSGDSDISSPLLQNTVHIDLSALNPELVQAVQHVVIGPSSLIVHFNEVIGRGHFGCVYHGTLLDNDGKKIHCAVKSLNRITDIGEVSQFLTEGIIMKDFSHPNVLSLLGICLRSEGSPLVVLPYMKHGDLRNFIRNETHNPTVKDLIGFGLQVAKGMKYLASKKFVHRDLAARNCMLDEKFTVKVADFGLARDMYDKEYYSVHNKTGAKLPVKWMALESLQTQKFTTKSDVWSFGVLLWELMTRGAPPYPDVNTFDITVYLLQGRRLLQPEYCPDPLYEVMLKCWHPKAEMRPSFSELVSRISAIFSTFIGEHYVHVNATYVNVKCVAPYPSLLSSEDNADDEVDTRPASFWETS

IC50	Structure (SMILES)
< 100 nM	CC(C)COC(=O)Nc1cccc(Cc2nn(-c3cnn(CCCC(=O)NCC(C)(C)O)c3)ccc2=O)c1 [Example 705, 2-methylpropyl (3-{[1-(1-{4-[(2-hydroxy-2-methylpropyl)amino]-4-oxobutyl}-1H-pyrazol-4-yl)-4-oxo-1,4-dihydropyridazin-3-yl]methyl}phenyl) carbamate]
< 100 nM	CCCn1cnc(-c2cccc(Cc3nn(-c4cnn(C)c4)ccc3=O)c2)n1 [Example 57, 1-(1-methyl-1H-pyrazol-4-yl)-3-[3-(1-propyl-1H-1,2,4-traizol-3-yl)benzyl]pyridazin-4(1H)-one]
< 100 nM	Cn1cc(-n2ccc(=O)c(Cc3cccc(-c4ncc(OCC5CCOC(C)(C)C5)cn4)c3)n2)cn1 (racemic) [Example 269, rac-3-(3-{5-[(2,2-dimethyltetrahydro-2H-pyran-4-yl)methoxy]pyrimidin-2-yl}benzyl)-1-(1-methyl-1H-pyrazol-4-yl)pyridazin-4(1H)-one]
< 100 nM	CC(C)Cc1cnc(-c2cccc(Cc3nn(-c4cnn(C)c4)ccc3=O)c2)nc1 [Example 394, 3-{3-[5-(2-methylpropyl)pyrimidin-2-yl)benzyl}-1-(1-methyl-1H-pyrazol-4-yl)pyridazin-4(1H)-one]
100 to 1000 nM	Cn1cc(-n2ccc(=O)c(Cc3cccc(-c4ncn(CCC#N)n4)c3)n2)cn1 [Example 709, 3-[3-(3-{[1-(1-methyl-1H-pyrazol-4-yl)-4-oxo-1,4-dihydropyridazin-3-yl]methyl}phenyl)-1H-1,2,4-triazol-1-yl]propanenitrile]
< 100 nM	CCOc1cnc(-c2cccc(Cc3nn(-c4cc(Cl)cc(C#N)c4)ccc3=O)c2)nc1 [Example 140, 3-chloro-5-{3-[3-(5-ethoxypyrimidin-2-yl)benzyl]-4-oxopyridazin-1(4H)-yl}benzonitrile]
100 to 1000 nM	CCCc1nc(-c2cccc(Cc3nn(-c4cnn(C)c4)ccc3=O)c2)n[nH]1 [Example 185, 1-(1-Methyl-1H-pyrazol-4-yl)-3-[3-(5-propyl-1H-1,2,4-triazol-3-yl)benzyl]pyridazin-4(1H)-one]
100 to 1000 nM	COCCOC(=O)Nc1cccc(C(C)c2nn(-c3cnn(C)c3)ccc2=O)c1 (single isomer, unassigned) [Example 653, 2-methoxyethyl (3-{(1R or S)-1-[1-(1-methyl-1H-pyrazol-4-yl)-4-oxo-1,4-dihydropyridazin-3-yl]ethyl}phenyl)carbamate]
< 100 nM	Cn1cc(-n2ccc(=O)c(Cc3cccc(NC(=O)OCC(F)CN4CCOCC4)c3)n2)cn1 (racemic) [Example 638, rac-2-Fluoro-3-morpholin-4-ylpropyl (3-{[1-(1-methyl-1H-pyrazol-4-yl)-4-oxo-1,4-dihydropyridazin-3-yl]methyl}phenyl)carbamate]
100 to 1000 nM	Cn1cc(-n2ccc(=O)c(Cc3cccc(-c4nnn(C)n4)c3)n2)cn1 [Example 58, 1-(1-methyl-1H-pyrazol-4-yl)-3-[3-(2-methyl-2H-tetrazol-5-yl)benzyl]pyridazin-4(1H)-one]
100 to 1000 nM	CC(c1cccc(-c2ncc(N3CCOCC3)cn2)c1)c1nn(-c2cnn(C)c2)ccc1=O (single isomer, unassigned) [Example 244, 1-(1-methyl-1H-pyrazol-4-yl)-3-{(1R or S)-1-[3-(5-morpholin-4-ylpyrimidin-2-yl)phenyl]ethyl}pyridazin-4(1H)-one]
< 100 nM	Cn1cc(-n2ccc(=O)c(Cc3cccc(-c4ncc(OCC(O)CN5CCOCC5)cn4)c3)n2)cn1 (racemic) [Example 368, rac-3-{3-[5-(2-hydroxy-3-morpholin-4-ylpropoxy)pyrimidin-2-yl]benzyl}-1-(1-methyl-1H-pyrazol-4-yl)pyridazin-4(1H)-one]
< 100 nM	Cn1cc(-n2ccc(=O)c(Cc3cccc(-c4ncc(C(=O)NCCCN5CCOCC5)cn4)c3)n2)cn1 [Example 482, 2-(3-{[1-(1-methyl-1H-pyrazol-4-yl)-4-oxo-1,4-dihydro-pyridazin-3-yl]methyl}phenyl)-N-(3-morpholin-4-ylpropyl)pyrimidine-5-carboxamide]
